{
  "source": "patent US20110053773A1",
  "about": "“METHODS OF IMPROVING NUTRITIONAL VALUE OF PLANTS” (UNIVERSITY OF TENNESSEE RESEARCH FOUNDATION, priority 2009, published 2011)",
  "key": {"[1]": {"test_system": "basil 'Genovese'", "test": "Visual injury of basil after insecticide, fungicide, PGRs, safeners (Example 4)", "description": "(§1) Greenhouse and laboratory studies were conducted to ascertain the tolerance and nutritional quality differences following postemergence applications of the insecticide chlorpyrifos, the fungicide chlorothalonil, the PGRs mepiquat-chloride and paclobutrazol, and the safeners napthalic anhydride and isoxadifen-ethyl on kale ‘Red Russian’ and basil ‘Genovese’. Visual injury was rated based on general phytotoxicity, chlorosis, and visual stunting and each measurement was based on a percent scale from 0 to 100 where 0 equals no visual response and 100 equals complete plant death. Kale and basil were both harvested approximately 4 weeks after treatments and plants were pooled over replicates for content analysis of crude protein, crude amino acid content, acid detergent fiber, neutral detergent fiber, total fatty acids, and/or key mineral content (including Na, Ca, P, Mg, K, Fe, Mn, Zn, and Cu). In addition, the amounts of key individual amino acids (aspartic acid, threonine, glutamic acid, proline, glycine, cysteine, valine, leucine, isoleucine, methionine, and lysine) and composite classifications of fatty acid (saturated fatty acids, monounsaturated fatty acids, polyunsaturated fatty acids) were also analyzed from these sub-samples for kale (Tables 10-14)."}, "[2]": {"test_system": "basil 'Genovese'", "test": "Content analysis of basil: protein, minerals (Example 4, Tables 10-11)", "format": "in vivo", "conditions": "28 DA-A, rates g ai/ha: chlropyrifos 1120, chlorothalonil 2630, paclobutrazol 3.23, mepiquat-chloride 12.3, Isoxadifen 8, Napthalic anhydride 264, + NIS 0.25 % v/v", "description": "as §1"}, "[3]": {"test_system": "kale 'Red Russian'", "test": "Visual injury of kale after insecticide, fungicide, PGRs, safeners (Example 4)", "description": "as §1"}, "[4]": {"test_system": "basil ‘Genovese’", "test": "Yield, fresh weight of basil after insecticide, fungicide, PGRs and safeners (Example 4, Table 10)", "format": "in vivo", "conditions": "DA-A, check 31.8", "description": "as §1"}, "[5]": {"test_system": "kale ‘Red Russian’", "test": "Yield, fresh weight of kale after insecticide, fungicide and PGRs (Example 4, Table 12)", "format": "in vivo", "conditions": "28 DA-A, Untreated Check 106.9", "description": "as §1"}, "[6]": {"conditions": "7 DA-A, rates g ai/ha: chlropyrifos 1120, chlorothalonil 2630, paclobutrazol 3.23, mepiquat-chloride 12.3, Isoxadifen 8, Napthalic anhydride 264, + NIS 0.25 % v/v"}, "[7]": {"conditions": "7 DA-A, rates g ai/ha: chlropyrifos 3370, chlorothalonil 7900, paclobutrazol 9.7, mepiquat-chloride 37, Isoxadifen 16, Napthalic anhydride 527, + NIS 0.25 % v/v"}, "[8]": {"conditions": "14 DA-A, rates g ai/ha: chlropyrifos 1120, chlorothalonil 2630, paclobutrazol 3.23, mepiquat-chloride 12.3, Isoxadifen 8, Napthalic anhydride 264, + NIS 0.25 % v/v"}, "[9]": {"conditions": "14 DA-A, rates g ai/ha: chlropyrifos 3370, chlorothalonil 7900, paclobutrazol 9.7, mepiquat-chloride 37, Isoxadifen 16, Napthalic anhydride 527, + NIS 0.25 % v/v"}, "[10]": {"conditions": "28 DA-A, rates g ai/ha: chlropyrifos 1120, chlorothalonil 2630, paclobutrazol 3.23, mepiquat-chloride 12.3, Isoxadifen 8, Napthalic anhydride 264, + NIS 0.25 % v/v"}, "[11]": {"conditions": "28 DA-A, rates g ai/ha: chlropyrifos 3370, chlorothalonil 7900, paclobutrazol 9.7, mepiquat-chloride 37, Isoxadifen 16, Napthalic anhydride 527, + NIS 0.25 % v/v"}, "[12]": {"conditions": "7 DA-A, rates g ai/ha: chlropyrifos 1120, chlorothalonil 2630, paclobutrazol 3.23, mepiquat-chloride 12.3, + NIS 0.25 % v/v"}, "[13]": {"conditions": "7 DA-A, rates g ai/ha: chlropyrifos 3370, chlorothalonil 7900, paclobutrazol 9.7, mepiquat-chloride 37, + NIS 0.25 % v/v"}, "[14]": {"conditions": "14 DA-A, rates g ai/ha: chlropyrifos 1120, chlorothalonil 2630, paclobutrazol 3.23, mepiquat-chloride 12.3, + NIS 0.25 % v/v"}, "[15]": {"conditions": "14 DA-A, rates g ai/ha: chlropyrifos 3370, chlorothalonil 7900, paclobutrazol 9.7, mepiquat-chloride 37, + NIS 0.25 % v/v"}, "[16]": {"conditions": "28 DA-A, rates g ai/ha: chlropyrifos 1120, chlorothalonil 2630, paclobutrazol 3.23, mepiquat-chloride 12.3, + NIS 0.25 % v/v"}, "[17]": {"conditions": "28 DA-A, rates g ai/ha: chlropyrifos 3370, chlorothalonil 7900, paclobutrazol 9.7, mepiquat-chloride 37, + NIS 0.25 % v/v"}},
  "data": [
    {"smiles": "CCOP(=S)(OCC)Oc1nc(Cl)c(Cl)cc1Cl", "note": "[chlropyrifos]", "values": [
      {"measurement": "Phytotoxicity General", "setting": "[1]; [6]", "value": 2, "unit": "%"},
      {"measurement": "Phytotoxicity Stunting", "setting": "[1]; [6]", "value": 5, "unit": "%"},
      {"measurement": "Phytotoxicity Chlorosis", "setting": "[1]; [7]", "value": 10, "unit": "%"},
      {"measurement": "Phytotoxicity General", "setting": "[1]; [7]", "value": 2, "unit": "%"},
      {"measurement": "Phytotoxicity Stunting", "setting": "[1]; [7]", "value": 13, "unit": "%"},
      {"measurement": "Phytotoxicity Chlorosis", "setting": "[1]; [8]", "value": 3, "unit": "%"},
      {"measurement": "Phytotoxicity General", "setting": "[1]; [8]", "value": 7, "unit": "%"},
      {"measurement": "Phytotoxicity Stunting", "setting": "[1]; [8]", "value": 10, "unit": "%"},
      {"measurement": "Phytotoxicity Chlorosis", "setting": "[1]; [9]", "value": 8, "unit": "%"},
      {"measurement": "Phytotoxicity General", "setting": "[1]; [9]", "value": 2, "unit": "%"},
      {"measurement": "Phytotoxicity Stunting", "setting": "[1]; [9]", "value": 10, "unit": "%"},
      {"measurement": "Phytotoxicity Chlorosis", "setting": "[1]; [10]", "value": 5, "unit": "%"},
      {"measurement": "Phytotoxicity General", "setting": "[1]; [10]", "value": 10, "unit": "%"},
      {"measurement": "Phytotoxicity Stunting", "setting": "[1]; [10]", "value": 8, "unit": "%"},
      {"measurement": "Phytotoxicity Chlorosis", "setting": "[1]; [11]", "value": 7, "unit": "%"},
      {"measurement": "Phytotoxicity General", "setting": "[1]; [11]", "value": 2, "unit": "%"},
      {"measurement": "Phytotoxicity Stunting", "setting": "[1]; [11]", "value": 12, "unit": "%"},
      {"measurement": "ADF, Percent Increase Over the Untreated Check (on a % dry matter basis)", "setting": "[2]", "value": "−12", "unit": "% check"},
      {"measurement": "Calcium, Percent Increase Over the Untreated Check (on a % dry matter basis)", "setting": "[2]", "value": 7, "unit": "% check"},
      {"measurement": "Copper, Percent Increase Over the Untreated Check (on a % dry matter basis)", "setting": "[2]", "value": 8, "unit": "% check"},
      {"measurement": "Iron, Percent Increase Over the Untreated Check (on a % dry matter basis)", "setting": "[2]", "value": 108, "unit": "% check"},
      {"measurement": "Magnesium, Percent Increase Over the Untreated Check (on a % dry matter basis)", "setting": "[2]", "value": 12, "unit": "% check"},
      {"measurement": "Manganese, Percent Increase Over the Untreated Check (on a % dry matter basis)", "setting": "[2]", "value": 28, "unit": "% check"},
      {"measurement": "NDF, Percent Increase Over the Untreated Check (on a % dry matter basis)", "setting": "[2]", "value": "−8", "unit": "% check"},
      {"measurement": "Phosphorous, Percent Increase Over the Untreated Check (on a % dry matter basis)", "setting": "[2]", "value": 11, "unit": "% check"},
      {"measurement": "Potassium, Percent Increase Over the Untreated Check (on a % dry matter basis)", "setting": "[2]", "value": 12, "unit": "% check"},
      {"measurement": "Protein, Percent Increase Over the Untreated Check (on a % dry matter basis)", "setting": "[2]", "value": 20, "unit": "% check"},
      {"measurement": "Sodium, Percent Increase Over the Untreated Check (on a % dry matter basis)", "setting": "[2]", "value": 83, "unit": "% check"},
      {"measurement": "Soluble protein, Percent Increase Over the Untreated Check (on a % dry matter basis)", "setting": "[2]", "value": 196, "unit": "% check"},
      {"measurement": "Zinc, Percent Increase Over the Untreated Check (on a % dry matter basis)", "setting": "[2]", "value": 33, "unit": "% check"},
      {"measurement": "Phytotoxicity Chlorosis", "setting": "[3]; [12]", "value": 1, "unit": "%"},
      {"measurement": "Phytotoxicity General", "setting": "[3]; [12]", "value": 14, "unit": "%"},
      {"measurement": "Phytotoxicity Stunting", "setting": "[3]; [12]", "value": 9, "unit": "%"},
      {"measurement": "Phytotoxicity Chlorosis", "setting": "[3]; [13]", "value": 0, "unit": "%"},
      {"measurement": "Phytotoxicity General", "setting": "[3]; [13]", "value": 13, "unit": "%"},
      {"measurement": "Phytotoxicity Stunting", "setting": "[3]; [13]", "value": 6, "unit": "%"},
      {"measurement": "Phytotoxicity Chlorosis", "setting": "[3]; [14]", "value": 15, "unit": "%"},
      {"measurement": "Phytotoxicity General", "setting": "[3]; [14]", "value": 4, "unit": "%"},
      {"measurement": "Phytotoxicity Stunting", "setting": "[3]; [14]", "value": 9, "unit": "%"},
      {"measurement": "Phytotoxicity Chlorosis", "setting": "[3]; [15]", "value": 13, "unit": "%"},
      {"measurement": "Phytotoxicity General", "setting": "[3]; [15]", "value": 5, "unit": "%"},
      {"measurement": "Phytotoxicity Stunting", "setting": "[3]; [15]", "value": 10, "unit": "%"},
      {"measurement": "Phytotoxicity Chlorosis", "setting": "[3]; [16]", "value": 6, "unit": "%"},
      {"measurement": "Phytotoxicity General", "setting": "[3]; [16]", "value": 4, "unit": "%"},
      {"measurement": "Phytotoxicity Stunting", "setting": "[3]; [16]", "value": 8, "unit": "%"},
      {"measurement": "Phytotoxicity Chlorosis", "setting": "[3]; [17]", "value": 3, "unit": "%"},
      {"measurement": "Phytotoxicity General", "setting": "[3]; [17]", "value": 3, "unit": "%"},
      {"measurement": "Phytotoxicity Stunting", "setting": "[3]; [17]", "value": 6, "unit": "%"},
      {"measurement": "Yield Fresh weight", "setting": "[4]; rates g ai/ha: chlropyrifos 1120, chlorothalonil 2630, paclobutrazol 3.23, mepiquat-chloride 12.3, Isoxadifen 8, Napthalic anhydride 264, + NIS 0.25 % v/v", "value": 24.6, "unit": "grams"},
      {"measurement": "Yield Fresh weight", "setting": "[4]; rates g ai/ha: chlropyrifos 3370, chlorothalonil 7900, paclobutrazol 9.7, mepiquat-chloride 37, Isoxadifen 16, Napthalic anhydride 527, + NIS 0.25 % v/v", "value": 32.9, "unit": "grams"},
      {"measurement": "Yield Fresh weight", "setting": "[5]; rates g ai/ha: chlropyrifos 1120, chlorothalonil 2630, paclobutrazol 3.23, mepiquat-chloride 12.3, + NIS 0.25 % v/v", "value": 108.2, "unit": "grams"},
      {"measurement": "Yield Fresh weight", "setting": "[5]; rates g ai/ha: chlropyrifos 3370, chlorothalonil 7900, paclobutrazol 9.7, mepiquat-chloride 37, + NIS 0.25 % v/v", "value": 110.1, "unit": "grams"}
    ]}
  ]
}
